From patent US6903219B2 (dated 2005)

| melting point [°C] | SMILES |
| --- | --- |
| 168 to 169 | COc1ccnc(C(=O)N[C@H]2COC(=O)[C@H](Cc3ccccc3)[C@@H](OCC(C)C)[C@H](C)OC2=O)c1O |
| 50 to 52 | C=C(C)CO[C@H]1[C@H](C)OC(=O)[C@@H](NC(=O)c2nccc(OC)c2OCc2ccccc2)COC(=O)[C@@H]1Cc1ccccc1 |
| 102 to 104 | C=C(C)CO[C@H]1[C@H](C)OC(=O)[C@@H](NC(=O)c2nccc(OC)c2OCOC(C)=O)COC(=O)[C@@H]1Cc1ccccc1 |
| 150 to 152 | CCCO[C@H]1[C@H](C)OC(=O)[C@@H](NC(=O)c2nccc(OC)c2O)COC(=O)[C@@H]1Cc1ccccc1 |
